Here are results for 25 compounds from PubChem BioAssay AID206 (DTP/NCI, 2004).

The assay has as its system nude mice, HT29 intrarenal xenograft, tumor weight T/C. Briefly: NCI In Vivo Anticancer Drug Screen. Data for tumor model HT29;CX-1 Human Adenocarcinoma (MER+) (intrarenal inoculation) in NU/NU Swiss (nude) mice. The settings on record: endpoint: mean tumor weight change, higher = larger tumour. Summed up: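 Compounds were given to mice carrying transplantable tumors; a vehicle-dosed group served as control. The endpoint measured in each group was compared as a T/C quotient.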

The mark [1] stands for this setting: dose: 50.0 mg/kg/injection, schedule: Q01DX010 (sc), vehicle: saline with Tween-80.
Where [2] appears, read: dose: 100.0 mg/kg/injection, schedule: Q01DX010 (sc), vehicle: saline with Tween-80.
The mark [3] stands for this setting: dose: 200.0 mg/kg/injection, schedule: Q01DX010 (sc), vehicle: saline with Tween-80.
Setting [4] is: dose: 25.0 mg/kg/injection, schedule: Q04DX004 (sc), vehicle: saline.
The mark [5] stands for this setting: dose: 50.0 mg/kg/injection, schedule: Q04DX004 (sc), vehicle: saline.
Setting [6] is: dose: 100.0 mg/kg/injection, schedule: Q04DX004 (sc), vehicle: saline.
Setting [7] is: dose: 25.0 mg/kg/injection, schedule: Q01DX010 (sc), vehicle: saline.
Setting [8] is: dose: 100.0 mg/kg/injection, schedule: Q01DX010 (sc), vehicle: saline.
The mark [9] stands for this setting: dose: 100.0 mg/kg/injection, schedule: Q04DX004 (sc), vehicle: saline with Tween-80.
Setting [10] is: dose: 200.0 mg/kg/injection, schedule: Q04DX004 (sc), vehicle: saline with Tween-80.
Setting [11] is: dose: 400.0 mg/kg/injection, schedule: Q04DX004 (sc), vehicle: saline with Tween-80.
[12] abbreviates: dose: 50.0 mg/kg/injection, schedule: Q01DX010 (sc), vehicle: saline.
Where [13] appears, read: dose: 12.5 mg/kg/injection, schedule: Q01DX010 (sc), vehicle: saline.
The mark [14] stands for this setting: dose: 50.0 mg/kg/injection, schedule: Q04DX004 (sc), vehicle: saline with Tween-80.

Several values for one entry are separate records, joined by “and”; a condition that tells them apart may be missing. Equal entries are not always repeated. Records with an inconclusive call do not appear.

Turning to `O=C1c2ccccc2C(=O)c2c3c(cc(NCCNCCO)c21)N(CCO)CCN3`, the T/C by setting is: (dose: 100.0 mg/kg/injection, schedule: Q04DX004 (sc), vehicle: DMSO) 168 % of control; (dose: 200.0 mg/kg/injection, schedule: Q04DX004 (sc), vehicle: DMSO) 112 % of control; (dose: 400.0 mg/kg/injection, schedule: Q04DX004 (sc), vehicle: DMSO) 59 % of control; (dose: 800.0 mg/kg/injection, schedule: Q04DX004 (sc), vehicle: DMSO) 104 % of control.
For the compound `C[C@@H]1C[C@H]2[C@@H]3CCC4=CC(=O)C=C[C@]4(C)[C@@]3(F)[C@@H](O)C[C@]2(C)[C@@]1(O)C(=O)CO`, the T/C (dose: 1.56 mg/kg/injection, schedule: Q01DX010 (sc), vehicle: Klucel (hydroxypropylcellulose) (HPC)) is 62 % of control; the T/C (dose: 3.13 mg/kg/injection, schedule: Q01DX010 (sc), vehicle: Klucel (hydroxypropylcellulose) (HPC)) was 40 % of control; the T/C (dose: 6.25 mg/kg/injection, schedule: Q01DX010 (sc), vehicle: Klucel (hydroxypropylcellulose) (HPC)) was 42 % of control; the T/C (dose: 12.5 mg/kg/injection, schedule: Q01DX010 (sc), vehicle: Klucel (hydroxypropylcellulose) (HPC)) is 39 % of control.
Regarding `COc1ccc2c(c1)CCC(c1ccccc1)=C2c1ccc(OCCN2CCCC2)cc1`, the T/C is 87 % of control (dose: 50.0 mg/kg/injection, schedule: Q04DX004 (sc), vehicle: Klucel (hydroxypropylcellulose) (HPC)); 108 % of control (dose: 200.0 mg/kg/injection, schedule: Q04DX004 (sc), vehicle: Klucel (hydroxypropylcellulose) (HPC)); 52 % of control (dose: 400.0 mg/kg/injection, schedule: Q04DX004 (sc), vehicle: Klucel (hydroxypropylcellulose) (HPC)).
For the compound `CCN(CC)CCCC(C)Nc1c2ccc(Cl)cc2nc2ccc(OC)cc12` (configuration not stated), the T/C is 75 % of control under setting [1], 91 % of control under setting [2] and 38 % of control under setting [3].
As for `CC(=O)C1=C(O)C2(O)C(=O)c3c(c(C)c4ccc(C)c(O)c4c3O)CC2C(N)C1=O` (configuration not stated), the T/C under setting [4] was 153 % of control; the T/C under setting [5] is 173 % of control; the T/C under setting [6] was 102 % of control; the T/C (dose: 200.0 mg/kg/injection, schedule: Q04DX004 (sc), vehicle: saline) is 109 % of control.
`C=CC(=O)NCNC(=O)C=C`: the T/C was 217 % of control and 220 % of control under setting [7]; 213 % of control under setting [8].
As to `COc1cc2c(cc1O)N=C[C@@H]1CCC(O)N1C2=O` (mixture of isomers), for the setting “dose: 10.0 mg/kg/injection, schedule: Q04DX004 (sc), vehicle: suspension in saline”, the T/C was 64 % of control.
Consider `CC(=O)OC1=NC(C)c2c1cc(OC(C)=O)[nH]c2=O` (configuration not stated), for which the T/C by setting is: (dose: 225.0 mg/kg/injection, schedule: Q04DX004 (sc), vehicle: Klucel (hydroxypropylcellulose) (HPC)) 108 % of control; (dose: 900.0 mg/kg/injection, schedule: Q04DX004 (sc), vehicle: Klucel (hydroxypropylcellulose) (HPC)) 58 % of control.
As to `CCc1ncnc2cc(OCC3CO3)c(OC)cc12` (configuration not stated), the T/C is 69 % of control under setting [4], 36 % of control under setting [5] and 80 % of control under setting [6].
On to `O=CC=O`, for which the T/C is 64 % of control under setting [1], 66 % of control under setting [2] and 38 % of control under setting [3].
Take `[Cl][Pt+2][Cl].[NH-]C1CCC1.[NH2-]`: the T/C by setting is: (dose: 6.25 mg/kg/injection, schedule: Q04DX004 (sc), vehicle: suspension in saline) 54 % of control; (dose: 12.5 mg/kg/injection, schedule: Q04DX004 (sc), vehicle: suspension in saline) 41 % of control; (dose: 25.0 mg/kg/injection, schedule: Q04DX004 (sc), vehicle: suspension in saline) 46 % of control.
As for `COC(=O)c1ccoc1`, the T/C (dose: 150.0 mg/kg/injection, schedule: Q04DX004 (sc), vehicle: saline) was 116 % of control.
Take `CC1=C(/C=C/C(C)=C/C=C/C(C)=C/CO)C(C)(C)CCC1`: the T/C was 82 % of control under setting [9]; 94 % of control under setting [10]; 96 % of control under setting [11]; 121 % of control (dose: 800.0 mg/kg/injection, schedule: Q04DX004 (sc), vehicle: saline with Tween-80).
On to `COc1cc2cc3cc4cc(OC)c(OC)cc4c(C)[n+]3cc2cc1OC` (tested in a mixture with another compound), for which the T/C was 118 % of control (dose: 200.0 mg/kg/injection, schedule: Q04DX004 (sc), vehicle: suspension in saline); 80 % of control (dose: 400.0 mg/kg/injection, schedule: Q04DX004 (sc), vehicle: suspension in saline); 98 % of control (dose: 800.0 mg/kg/injection, schedule: Q04DX004 (sc), vehicle: suspension in saline).
For `Cc1ccc(S(=O)(=O)NC(=O)C2C(=O)CC3(CCCCC3)CC2=O)cc1`, the T/C (dose: 150.0 mg/kg/injection, schedule: Q04DX004 (sc), vehicle: Klucel (hydroxypropylcellulose) (HPC)) was 80 % of control; the T/C (dose: 300.0 mg/kg/injection, schedule: Q04DX004 (sc), vehicle: Klucel (hydroxypropylcellulose) (HPC)) was 84 % of control; the T/C (dose: 600.0 mg/kg/injection, schedule: Q04DX004 (sc), vehicle: Klucel (hydroxypropylcellulose) (HPC)) is 58 % of control.
`CC[N+](CC)(CC)CC`: the T/C (dose: 3.0 mg/kg/injection, schedule: Q01DX010 (sc), vehicle: saline with Tween-80) was 68 % of control and the T/C (dose: 6.0 mg/kg/injection, schedule: Q01DX010 (sc), vehicle: saline with Tween-80) is 104 % of control.
Regarding `BrCC[Se]c1ccccc1`, under setting [10], the T/C is 16 % of control.
With `Cc1cn(C2CC3[O][Sn]([c]4ccccc4)([c]4ccccc4)[O]CC3O2)c(=O)[nH]c1=O` (configuration not stated), the T/C runs as follows: under setting [7], 60 % of control; under setting [12], 60 % of control; under setting [8], 79 % of control; (dose: 200.0 mg/kg/injection, schedule: Q01DX010 (sc), vehicle: saline) 55 % of control; (dose: 600.0 mg/kg/injection, schedule: Q04DX004 (sc), vehicle: saline) 94 % of control; (dose: 1200.0 mg/kg/injection, schedule: Q04DX004 (sc), vehicle: saline) 95 % of control. In addition, where the note is “dose: 2400.0 mg/kg/injection, schedule: Q04DX004 (sc), vehicle: saline”, the T/C is 94 % of control.
In the case of `COc1ccc(C(=O)/C(Br)=C/C(=O)O)cc1`, the T/C is 73 % of control under setting [13], 122 % of control under setting [7] and 56 % of control under setting [12].
Consider `CC(C)[NH-].CC(C)[NH-].O.O.[Cl][Pt+2][Cl]`, for which the T/C (dose: 6.25 mg/kg/injection, schedule: Q01DX010 (sc), vehicle: dextrose) was 77 % of control and 79 % of control; the T/C (dose: 12.5 mg/kg/injection, schedule: Q01DX010 (sc), vehicle: dextrose) is 7 % of control and 23 % of control.
On to `CC[C@H](CC[C@@H](C)C1CC[C@H]2[C@@H]3CC=C4C[C@@H](OP(=O)(N5CC5)N5CC5)CC[C@]4(C)[C@H]3CC[C@]12C)C(C)C` (some centres not stated), for which the T/C was 73 % of control under setting [2] and 97 % of control (dose: 800.0 mg/kg/injection, schedule: Q01DX010 (sc), vehicle: saline with Tween-80).
In the case of `O=S(=O)(CCl)OCCCl`, the T/C reads like this: under setting [14], 163 % of control; under setting [9], 105 % of control.
As to `O=C(O)C1CC1.[Ag]`, the T/C is, setting by setting: (dose: 75.0 mg/kg/injection, schedule: Q04DX004 (sc), vehicle: saline with Tween-80) 81 % of control; (dose: 150.0 mg/kg/injection, schedule: Q04DX004 (sc), vehicle: saline with Tween-80) 64 % of control.
Turning to `COc1cc2c[n+](C)c3c4cc5c(cc4ccc3c2cc1OC)OCO5`, the T/C under setting [14] was 67 % of control, the T/C under setting [9] is 48 % of control, the T/C under setting [10] is 79 % of control and the T/C under setting [11] is 60 % of control.
For `CC1(C)N=C(N)N=C(N)N1c1ccc(F)c(C(F)(F)F)c1`, the T/C is 103 % of control (dose: 3.12 mg/kg/injection, schedule: Q01DX010 (sc), vehicle: saline); 84 % of control (dose: 6.25 mg/kg/injection, schedule: Q01DX010 (sc), vehicle: saline); 49 % of control under setting [13]; 124 % of control under setting [7].
